Measured values: patent publication US10968203B2, “Pyrimidinyl-pyridyloxy-naphthyl compounds and methods of treating IRE1-related diseases and disorders” (Genentech, Inc., priority 2017, dated 2021)
Counter-ions that a name gives are not always drawn. Like-named read-outs stand apart in the source and are kept apart here.

Test system: XBP1s-luc 293 LUC
Experiment: cellular PD assay, XBP1s-LUC reporter (Example 903)
Assay type: cell-based
Details: read-out: XBP1s-luc 293 LUC (IC50)
Procedure: Inhibition of IRE1α RNase activity was determined in an enzyme assay that measured cleavage of the XBP1 stem loop by autophosphorylated IRE1α. This assay format was chosen to ensure that inhibitors of either the IRE1α kinase or the RNase domains would be identified. Binding to the ATP pocket and inhibition of IRE1α kinase activity are not necessarily required to inhibit the RNase activity. Compounds were also profiled in cellular assays by direct measurement of XBP s (B-DNA assay) or by quantification of the luciferase signal in HT1080 XBP1-Luc, which carries a luciferase fusion that is only in frame and expressed from the spliced XBP1 transcript.
Biological activity of Formula I or I′ compounds was measured by an IRE1 biochemical binding assay (Example 901), a biochemical RNase assay (Example 902), a cellular PD assay, XBP1s-LUC reporter (Example 903), and an IRE1α-based inhibition of multiple myeloma (MM) cell proliferation assay.
All of the exemplary Formula I or I′ compounds in Tables 1 and 2 were made and characterized by LCMS [M+H]^+ (liquid chromatography mass spectroscopy) with detection of parent ion. All of the exemplary Formula I compounds in Tables 1 and 2 were prepared according to the procedures of the Schemes, General Procedures, and Examples. All of the exemplary Formula I or I′ compounds in Tables 1 and 2 were tested for binding to IRE1 (inositol requiring enzyme 1 alpha) and biological activity according to the assays and protocols of Example 901-903. Exemplary Formula I or I′ compounds in Tables 1 and 2 have the following structures, corresponding IUPAC names (ChemBioDraw, Version 12.0.2, CambridgeSoft Corp., Cambridge Mass.), and biological activity. Where more than one name is associated with a Formula I or I′ compound or intermediate in Tables 1 and 2 and the Experimental Procedures, the chemical structure shall define the compound. Assignment of configuration at chiral centers in separated stereoisomers may be tentative, and depicted in Tables 1 and 2 structures for illustrative purposes, before stereochemistry is definitively established, such as from x-ray crystallographic data. In some cases, stereoisomers are separated and tested for biological activity before the stereochemistry of the separated stereoisomers is determined; and stereochemistry in some instances was inferred based on structure-activity relationship (SAR) knowledge from previous compounds. In some cases, the compounds are tested as racemic or diastereomeric mixtures. Where more than one potency value is entered on a row, separated stereoisomers represented by the structure and name on that row were tested. Exemplary compounds of Formula I or I′ in Table 3 can be prepared using methods known in the art or according to procedures similar to those described in the Schemes, General Procedures, and Examples 101-500. Biological activities of compounds in Table 3 can be tested in biological assays, for example, those in Examples 901, 902 and 903 described herein.

SMILES | IC50 (Table 1) | IC50 (Table 2) | also measured
CC[C@H]1CCN(c2cccc3c(Oc4ncccc4-c4ccnc(N[C@@H]5CNC[C@H](C)C5)n4)c(C)ccc23)C1=O (single isomer, unassigned) [Example 332] | 194 nM |  | 
Cc1ccc2c(NC[C@H](O)CF)cccc2c1Oc1ncccc1-c1ccnc(N[C@H]2CCCNC2)n1 (single isomer, unassigned) [Example 333] | 44.6 nM |  | 
Cc1ccc2c(NC[C@@H](O)CF)cccc2c1Oc1ncccc1-c1ccnc(N[C@H]2CCCNC2)n1 (single isomer, unassigned) [Example 334] | 89.7 nM |  | 
Cc1ccc2c(NC(=O)[C@H]3CC34CCC4)cccc2c1Oc1ncccc1-c1ccnc(N[C@H]2CCCNC2)n1 (single isomer, unassigned) [Example 339] | 137 nM |  | 
Cc1ccc2c(NC(=O)[C@@H]3CC34CCC4)cccc2c1Oc1ncccc1-c1ccnc(N[C@H]2CCCNC2)n1 (single isomer, unassigned) [Example 340] | 17.7 nM |  | 
Cc1ccc2c(NC[C@H]3CC3(F)F)cccc2c1Oc1ncccc1-c1ccnc(N[C@H]2CCCNC2)n1 (single isomer, unassigned) [Example 342] | 121 nM |  | 
Cc1ccc2c(NC[C@@H]3CC3(F)F)cccc2c1Oc1ncccc1-c1ccnc(N[C@H]2CCCNC2)n1 (single isomer, unassigned) [Example 343] | 181 nM |  | 
Cc1ccc2c(NC[C@@H]3CCOC3)cccc2c1Oc1ncccc1-c1ccnc(N[C@H]2CCCNC2)n1 (single isomer, unassigned) [Example 351] | 500 nM |  | 
Cc1ccc2c(NC[C@H]3CCOC3)cccc2c1Oc1ncccc1-c1ccnc(N[C@H]2CCCNC2)n1 (single isomer, unassigned) [Example 352] | 499 nM |  | 
CC[C@H]1CCN(c2cccc3c(Oc4ncccc4-c4ccnc(N[C@H]5CCCNC5)n4)c(C)ccc23)C1=O (single isomer, unassigned) [Example 355] | 365 nM |  | 
CCC1CC(=O)N(c2cccc3c(Oc4ncccc4-c4ccnc(N[C@H]5CCCNC5)n4)c(C)ccc23)C1 (single isomer, unassigned) [Example 356] | 279 nM |  | 
CCC1CCC(=O)N1c1cccc2c(Oc3ncccc3-c3ccnc(N[C@H]4CCCNC4)n3)c(C)ccc12 (single isomer, unassigned) [Example 357] | 260 nM |  | 
Cc1ccc2c(NC(=O)[C@H]3CCCC3C)cccc2c1Oc1ncccc1-c1ccnc(N[C@H]2CCCNC2)n1 (single isomer, unassigned) [Example 372] | 470 nM |  | 
Cc1ccc2c(NC(=O)[C@@H]3CCCC3C)cccc2c1Oc1ncccc1-c1ccnc(N[C@H]2CCCNC2)n1 (single isomer, unassigned) [Example 373] | 193 nM |  | 
Cc1ccc2c(NC(=O)[C@H]3CC34CC4)c(F)ccc2c1Oc1ncccc1-c1ccnc(N[C@H]2CCCNC2)n1 (single isomer, unassigned) [Example 379] | 279 nM |  | 
Cc1ccc2c(NC(=O)[C@@H]3CC34CC4)c(F)ccc2c1Oc1ncccc1-c1ccnc(N[C@H]2CCCNC2)n1 (single isomer, unassigned) [Example 380] | 56.6 nM |  | 
Cc1ccc2c(NCC(C)C#N)cccc2c1Oc1ncccc1-c1ccnc(N[C@H]2CCCNC2)n1 (single isomer, unassigned) [Example 382] | 62.3 nM |  | 
Cc1ccc2c(NC(=O)[C@H]3CC34CCC4)c(F)ccc2c1Oc1ncccc1-c1ccnc(N[C@H]2CCCNC2)n1 (single isomer, unassigned) [Example 386] | 280 nM |  | 
Cc1ccc2c(NC(=O)[C@@H]3CC34CCC4)c(F)ccc2c1Oc1ncccc1-c1ccnc(N[C@H]2CCCNC2)n1 (single isomer, unassigned) [Example 387] | 28.3 nM |  | 
Cc1ccc2c(NC(=O)[C@H]3CC34CC4)c(F)ccc2c1Oc1ncccc1-c1ccnc(N[C@@H]2CNC[C@H](C)C2)n1 (single isomer, unassigned) [Example 388] | 136 nM |  | 
Cc1ccc2c(NC(=O)[C@@H]3CC34CC4)c(F)ccc2c1Oc1ncccc1-c1ccnc(N[C@@H]2CNC[C@H](C)C2)n1 (single isomer, unassigned) [Example 389] | 41.7 nM |  | 

SMILES | IC50 (Table 1) | IC50 (Table 2) | also measured
CO[C@@H](C)CS(=O)(=O)Nc1c(F)ccc2c(Oc3ncccc3-c3ccnc(N[C@H]4CCCNC4)n3)c(C)ccc12 (single isomer, unassigned) [Example 393, hydrochloride] |  | 76 nM | 
CO[C@H](C)CS(=O)(=O)Nc1c(F)ccc2c(Oc3ncccc3-c3ccnc(N[C@H]4CCCNC4)n3)c(C)ccc12 (single isomer, unassigned) [Example 394, hydrochloride] |  | 28 nM | 
Cc1ccc2c(N[C@@H]3CCC[C@H]3O)cccc2c1Oc1ncccc1-c1ccnc(N[C@H]2CCCNC2)n1 (single isomer, unassigned) [Example 395, hydrochloride] |  | 109 nM | 
Cc1ccc2c(N[C@H]3CCC[C@@H]3O)cccc2c1Oc1ncccc1-c1ccnc(N[C@H]2CCCNC2)n1 (single isomer, unassigned) [Example 396, hydrochloride] |  | 270 nM | 
Cc1ccc2c(N3CCC(O)C3)cccc2c1Oc1ncccc1-c1ccnc(N[C@H]2CCCNC2)n1 (single isomer, unassigned) [Example 408] |  | 470 nM | 
Cc1ccc2c(NC[C@@H](C)C#N)cccc2c1Oc1ncccc1-c1ccnc(N[C@H]2CCCNC2)n1 (single isomer, unassigned) [Example 414, hydrochloride] |  | 59 nM | 
Cc1ccc2c(NC[C@H](C)C#N)cccc2c1Oc1ncccc1-c1ccnc(N[C@H]2CCCNC2)n1 (single isomer, unassigned) [Example 415, hydrochloride] |  | 269 nM | 
Cc1ccc2c(NS(=O)(=O)C[C@@H]3CCCO3)c(F)ccc2c1Oc1ncccc1-c1ccnc(N[C@H]2CCCNC2)n1 (single isomer, unassigned) [Example 416, hydrochloride] |  | 105 nM | 
Cc1ccc2c(NS(=O)(=O)C[C@H]3CCCO3)c(F)ccc2c1Oc1ncccc1-c1ccnc(N[C@H]2CCCNC2)n1 (single isomer, unassigned) [Example 417, hydrochloride] |  | 74 nM | 
Cc1ccc2c(NS(=O)(=O)Cc3ccccc3)c(F)ccc2c1Oc1ncccc1-c1ccnc(N[C@@H]2CNC[C@@H](F)C2)n1 (single isomer, unassigned) [Example 418, hydrochloride] |  | 2 nM | 
Cc1ccc2c(NCC(C#N)C(C)C)cccc2c1Oc1ncccc1-c1ccnc(N[C@H]2CCCNC2)n1 (single isomer, unassigned) [Example 422] |  | 83 nM | 
Cc1ccc2c(NS(=O)(=O)CCC(F)(F)F)c(F)ccc2c1Oc1ncccc1-c1ccnc(N[C@@H]2CNC[C@@H](F)C2)n1 (single isomer, unassigned) [Example 432, hydrochloride] |  | 28 nM | 
Cc1ccc2c(NC(=O)CC(O)C(F)(F)F)cccc2c1Oc1ncccc1-c1ccnc(N[C@H]2CCCNC2)n1 (single isomer, unassigned) [Example 435] |  | 338 nM | 
Cc1ccc2c(NC(=O)C[C@@H](O)C(F)(F)F)cccc2c1Oc1ncccc1-c1ccnc(N[C@H]2CCCNC2)n1 (single isomer, unassigned) [Example 436] |  | 75 nM | 
Cc1ccc2c(NS(=O)(=O)CC(F)(F)F)c(F)ccc2c1Oc1ncccc1-c1ccnc(N[C@@H]2CNC[C@@H](F)C2)n1 (single isomer, unassigned) [Example 444, hydrochloride] |  | 19 nM | 
Cc1ccc2c(N[C@@H]3CCCC[C@H]3O)cccc2c1Oc1ncccc1-c1ccnc(N[C@H]2CCCNC2)n1 (single isomer, unassigned) [Example 446, hydrochloride] |  | 67 nM | 
Cc1ccc2c(N[C@H]3CCCC[C@@H]3O)cccc2c1Oc1ncccc1-c1ccnc(N[C@H]2CCCNC2)n1 (single isomer, unassigned) [Example 447, hydrochloride] |  | 146 nM | 
Cc1ccc2c(NS(=O)(=O)CC(C)C(F)(F)F)c(F)ccc2c1Oc1ncccc1-c1ccnc(N[C@H]2CCCNC2)n1 (single isomer, unassigned) [Example 454, hydrochloride] |  | 24 nM | 
Cc1ccc2c(NS(=O)(=O)CC(C)C(F)(F)F)c(F)ccc2c1Oc1ncccc1-c1ccnc(N[C@H]2CCCNC2)n1 (single isomer, unassigned) [Example 455, hydrochloride] |  |  | IC50 (Table 2, hydrochloride): 18 nM
Cc1ccc2c(NC[C@H](O)C(C)C)cccc2c1Oc1ncccc1-c1ccnc(N[C@H]2CCCNC2)n1 (single isomer, unassigned) [Example 461, hydrochloride] |  | 42 nM | 
